According to PubChem BioAssay (NCI):
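Compound exposure: 48 hours, 5 concentrations, 96-well plates. Here, GI50 denotes the concentration required for 50% inhibition of growth. Definition used: TGI = concentration required for complete inhibition of growth.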

Tests used:
Test in all cases: NCI anticancer screen, dose series, 48 h
OVCAR-5 ovarian = system: OVCAR-5 ovarian
SK-MEL-2 melanoma = system: SK-MEL-2 melanoma
KM12 colon = system: KM12 colon
SK-OV-3 ovarian = system: SK-OV-3 ovarian
NCI-H522 lung = system: NCI-H522 lung
CAKI-1 renal = system: CAKI-1 renal
MOLT-4 leukemia = system: MOLT-4 leukemia
NCI-H460 lung = system: NCI-H460 lung
SF-268 CNS = system: SF-268 CNS
IGROV1 ovarian = system: IGROV1 ovarian

Row | Structure (SMILES) | GI50 (OVCAR-5 ovarian) [µM] | TGI (OVCAR-5 ovarian) [µM] | GI50 (SK-MEL-2 melanoma) [µM] | TGI (SK-MEL-2 melanoma) [µM] | GI50 (KM12 colon) [µM] | TGI (KM12 colon) [µM] | GI50 (SK-OV-3 ovarian) [µM] | TGI (SK-OV-3 ovarian) [µM] | GI50 (NCI-H522 lung) [µM] | TGI (NCI-H522 lung) [µM] | TGI (CAKI-1 renal) [µM] | TGI (MOLT-4 leukemia) [µM] | TGI (NCI-H460 lung) [µM] | TGI (SF-268 CNS) [µM] | TGI (IGROV1 ovarian) [µM] | GI50 (MOLT-4 leukemia) [µM] | GI50 (NCI-H460 lung) [µM] | GI50 (SF-268 CNS) [µM] | GI50 (IGROV1 ovarian) [µM] | GI50 (CAKI-1 renal) [µM]
1 | Nc1ccc(/C=N/Nc2ccnc3c(N)cccc23)c2cccnc12 | 1.86 | 3.44 | 1.7 | 3.25 | 1.7 | 3.49 | 1.82 | 3.3 | 1.84 | 3.62 |  |  |  |  |  |  |  |  |  | 
2 | CC(C)=CC(=O)Cc1nc2cc(C)c(C)cc2[nH]c1=O |  | > 100 |  | > 100 |  | > 100 |  | > 100 |  |  | > 100 | > 100 | > 100 | > 100 | > 100 |  |  |  |  | 
3 | COc1ccc(/C=C2\CCC(C)(CN(C)C)C2=O)cc1 (stereo not given) |  | > 100 |  | > 100 |  | > 100 |  |  |  | 32.8 | > 100 | > 100 | > 100 | > 100 | > 100 |  |  |  |  | 
4 | CC1OC(OCC2COC(O)(Oc3c(-c4ccc(O)c(O)c4)oc4cc(O)cc(O)c4c3=O)C(O)C2O)C(O)C(O)C1O (stereo not given) |  | > 100 |  |  |  | > 100 |  | > 100 |  |  | > 100 | > 100 | > 100 | > 100 | > 100 |  |  |  |  | 
5 | NCCC(O)(P(=O)(O)O)P(=O)(O)O | > 100 | > 100 | 4.43 | 43.8 | > 100 | > 100 | > 100 | > 100 | > 100 | > 100 |  | > 100 | > 100 | > 100 | > 100 | > 100 | > 100 | > 100 | > 100 | 
6 | NCCNC(=S)S |  | > 100 |  | > 100 |  | > 100 |  | > 100 |  | 16.6 | > 100 | 77.9 |  | 31.1 | > 100 |  |  |  |  | 
7 | Nc1nc2nc[nH]c2c(=O)[nH]1 |  | > 100 |  | > 100 |  | > 100 |  | > 100 |  | > 100 | > 100 |  | > 100 | > 100 | > 100 |  |  |  |  | 
8 | CCCc1nc2c(C)cc(-c3nc4ccccc4n3C)cc2n1Cc1ccc(-c2ccccc2C(=O)O)cc1 | > 100 | > 100 | 36.6 | 97.3 |  |  | > 100 | > 100 | 22 | 46.5 | 61.3 | > 100 | > 100 | > 100 | > 100 | 32.4 | 32.5 | 44.1 | 43.5 | 22.6
9 | CCOC(=O)c1sc(Nc2ccc(Cl)cc2)nc1C | 2.08 | 6.63 | 2.1 | 4.2 |  |  | 2.44 | 6.8 | 1.18 | 3.57 | 6.51 | 6.92 | 6.31 | 3.7 | 4.26 | 1.79 | 2.34 | 1.72 | 1.52 | 2.09
10 | Cc1cc(O)cc2c1O[C@@]1(C)CCC3[C@@]4(C)CC[C@H](O)C(C)(C)C4CC[C@@]3(C)[C@H]1C2 (stereo not given in full) |  |  |  |  |  | 21.4 |  | 12.5 |  | 21.9 | 20.6 | 4 | 17.5 |  | 30.2 |  |  |  |  | 
